According to patent US11123329B1, “Use of angiotensin II type 2 receptor agonist” (Vicore Pharma AB, priority 2020, dated 2021):

Columns and labels:
AT2R = conditions: in particular in inflamed lung tissue; cited from earlier work
ACE2 = conditions: in particular in inflamed lung tissue; cited from earlier work
E-cadherin expression = conditions: SAEMyoF
Excerpt: The effect of C21 on E-cadherin expression was studied using the human disease model BioMAP® platform (fibrosis panel) with ELISA-based protein biomarker detection in a human small airway epithelial cell plus lung fibroblast (SAEMyoF) assay (a service provided by Eurofins DiscoverX Corporation, Fremont, Calif., USA).

acute lung injury = conditions: model of acute lung injury; cited from earlier work
[1] = end of treatment, 100 mg b.i.d. oral, 7 days on top of standard of care, n=51

## CCCCOC(=O)NS(=O)(=O)c1sc(CC(C)C)cc1-c1ccc(Cn2ccnc2)cc1 [Compound C21, N-butyloxycarbonyl-3-(4-imidazol-1-ylmethylphenyl)-5-isobutylthiophene-2-sulfonamide]
AT2R
  expression of AT2R: increase the expression
ACE2
  expression of ACE2: increase the expression
E-cadherin expression; 0.37, 1.1 and 3.3 μM of C21
  reduction of E-cadherin at lower concentrations: did not reduce E-cadherin
E-cadherin expression; 0.37-10 μM
  effect on E-cadherin levels: dose-dependently reduced
Acute lung injury
  pulmonary gas exchange or other relevant beneficial clinical effects: not to improve
SARS-CoV-2 infection; 100 mg b.i.d., 7 days
  level of circulating biomarker of inflammation CRP, versus placebo: no significant differences
  level of circulating biomarker of inflammation IL-6, versus placebo: no significant differences
  level of circulating biomarker of inflammation TNF, versus placebo: no significant differences
SARS-CoV-2 infection; 100 mg b.i.d., 7 days, COVID-19 patients
  tolerability: well tolerated
SARS-CoV-2 infection; 100 mg b.i.d., 7 days, n=51
  deaths: 1
  number of patients needing mechanical ventilation: 1
  total number of reported adverse events: 64
SARS-CoV-2 infection; 100 mg b.i.d., 7 days, C21 n=51 vs placebo n=56
  beneficial effect on need of oxygen supply versus placebo: statistically significant at the predefined 10% level
SARS-CoV-2 infection; [1]
  number of patients that needed oxygen supply: 14
  patients that needed oxygen supply, share of group: 27%
